Reference: the supplement of paper PMC10307832

Legend:
Assay in all cases: relative viability (nuclei count vs DMSO), 5 days (fraction); higher = more cells survive
[1] = compound: CCN1CCN(c2ccc(Nc3cc(N(C)C(=O)Nc4c(Cl)c(OC)cc(OC)c4Cl)ncn3)cc2)CC1 [BGJ398] + O=C(c1cc(Cc2n[nH]c(=O)c3ccccc23)ccc1F)N1CCN(C(=O)C2CC2)CC1 [Olaparib] (partner 8 µM)
Method in brief: (§1)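 Relative viability equals treated-well nuclei counts divided by vehicle-well nuclei counts. Counts came from 4× images of lung cancer cell lines grown in 1536-well plates for 5 days after pin-tool dosing on the day after seeding. Dosing used one drug alone or a fixed anchor-drug dose plus five library-drug doses (not always all listed) in √10 steps, and values are medians of duplicate plates.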

[2] = compound: CCN1CCN(c2ccc(Nc3cc(N(C)C(=O)Nc4c(Cl)c(OC)cc(OC)c4Cl)ncn3)cc2)CC1 [BGJ398] + Cc1cc(Nc2cc(N3CCN(C)CC3)nc(Sc3ccc(NC(=O)C4CC4)cc3)n2)n[nH]1 [Tozasertib] (partner 0.1 µM)
Method in brief: as §1

[3] = compound: C1=CC2=NC=CN=C2C=C1/C=C/3\C(=O)NC(=O)S3 + COc1cc2c(Oc3ccc(NC(=O)C4(C(=O)Nc5ccc(F)cc5)CC4)cc3F)ccnc2cc1OCCCN1CCOCC1 [Foretinib] (partner 0.25 µM)
Method in brief: as §1

[4] = compound: C1=CC2=NC=CN=C2C=C1/C=C/3\C(=O)NC(=O)S3 + CS(=O)(=O)N1CCN(Cc2cc3nc(-c4cccc5[nH]ncc45)nc(N4CCOCC4)c3s2)CC1 [Pictilisib] (partner 1 µM)
Method in brief: as §1

| Cell Line | relative viability ([1]; first compound 0.01 µM) | relative viability ([1]; first compound 0.03162 µM) | relative viability ([1]; first compound 0.1 µM) | relative viability ([1]; first compound 0.3162 µM) | relative viability ([1]; first compound 1 µM) | relative viability ([2]; first compound 0.01 µM) | relative viability ([2]; first compound 0.1 µM) | relative viability ([2]; first compound 0.3162 µM) | relative viability ([2]; first compound 1 µM) | relative viability ([3]; first compound 0.02 µM) | relative viability ([3]; first compound 0.06325 µM) | relative viability ([3]; first compound 0.2 µM) | relative viability ([3]; first compound 0.6325 µM) | relative viability ([3]; first compound 2 µM) | relative viability ([4]; first compound 0.02 µM) | relative viability ([4]; first compound 0.06325 µM) | relative viability ([4]; first compound 0.2 µM) | relative viability ([4]; first compound 0.6325 µM) | relative viability ([4]; first compound 2 µM) | relative viability ([2]; first compound 0.03162 µM) |
| --- | --- | --- | --- | --- | --- | --- | --- | --- | --- | --- | --- | --- | --- | --- | --- | --- | --- | --- | --- | --- |
| H3255 | 0.527 | 0.537 | 0.604 | 0.551 | 0.55 | 0.628 | 0.472 | 0.743 | 0.608 | 0.786 | 0.968 | 0.881 | 0.899 | 0.965 | 0.537 | 0.55 | 0.464 | 0.503 | 0.426 | – |
| NCI-H1993 | 1.02 | 1.08 | 1.01 | 1.02 | 0.997 | 0.526 | 0.651 | 0.581 | 0.616 | 0.694 | 0.817 | 0.72 | 0.748 | 0.578 | 0.811 | 0.881 | 0.757 | 0.878 | 0.592 | 0.546 |
| NCI-H1734 | 0.504 | 0.622 | 0.627 | 0.609 | 0.607 | 0.259 | 0.222 | 0.258 | 0.26 | 0.891 | 0.674 | 0.808 | 0.844 | 0.681 | 0.426 | – | 0.509 | 0.421 | 0.274 | 0.266 |
| HOP-62 | 0.291 | 0.525 | 0.538 | 0.349 | 0.558 | 0.375 | 0.411 | 0.395 | 0.364 | 1.06 | 1.22 | 1.11 | 1.01 | 1.07 | 0.409 | 0.92 | 0.695 | 0.861 | 0.662 | 0.399 |
| LOU-NH91 | 0.884 | 0.707 | 0.92 | 0.699 | 0.927 | 0.656 | 0.698 | 0.541 | 0.737 | 0.917 | 0.965 | 0.964 | 0.923 | 0.855 | 0.528 | 0.535 | 0.535 | 0.498 | 0.484 | – |
| ChaGo-K-1 | 0.42 | 0.423 | 0.437 | 0.387 | 0.434 | 0.229 | 0.19 | 0.215 | 0.226 | 0.83 | 0.673 | 0.922 | 0.844 | 0.95 | 0.886 | 1.26 | 1.07 | 0.665 | 0.621 | 0.24 |
| NCI-H2228 | 0.606 | 0.765 | 0.512 | 0.594 | 0.441 | 0.235 | 0.224 | 0.188 | 0.204 | 0.834 | 1.05 | 0.961 | 0.841 | 0.749 | 0.384 | 0.36 | 0.441 | 0.274 | 0.22 | 0.255 |
| PC-14 | 0.322 | 0.346 | 0.254 | 0.289 | 0.27 | 0.575 | 0.666 | – | 0.621 | 0.934 | 1.07 | 0.961 | 1.01 | 0.893 | 0.636 | 0.75 | 0.735 | 0.652 | 0.531 | – |
